For one series, the target named is wild type CK1δ (Homo sapiens, UniProt P48730). As to the kind of experiment: CK1δ kinase assay (Kinase-Glo). In kind it is biochemical. The conditions noted are these: 10 μM ATP, 2 nM wild type CK1δ, 85 min at 25° C. As for the experimental part: The reaction mixture was incubated for 85 min at 25° C.; detection was carried out as described for the Kinase-Glo Assay (Promega). Luminescent output was measured on the Perkin Elmer Envision plate reader (PerkinElmer, Waltham, MA).
(Kinase-Glo reads ATP consumption through a luciferase reaction.)

Another series has as its target T1, CK1δ (Homo sapiens, UniProt P48730).
T1 construct: endogenous in cells; host or cells: Bmal1-dLuc or Per2-dLuc U2OS cells
Briefly: CK1δ inhibition (EC50); Bmal1-dLuc or Per2-dLuc U2OS luminescence rhythm period assay. In kind it is cell-based. The conditions noted are these: Table 3. The procedure: Bmall-dLuc or Per2-dLuc U2OS cells were suspended in the culture medium (DMEM supplemented with 10% fetal bovine serum, 0.29 mg/mL L-glutamine, 100 units/mL penicillin, and […] streptomycin) and plated onto 96-well white solid-bottom plates at 200 μL (10,000 cells) per well. After 2 days, 100 μL of the explant medium (DMEM supplemented with 2% B27, 10 mM HEPES, 0.38 mg/mL sodium bicarbonate, 0.29 mg/mL L-glutamine, 100 units/mL penicillin, […], 0.1 mg/mL gentamicin, and 1 mM luciferin, pH 7.2) was dispensed to each well, followed by the application of 1 μL of a compound of the present application (dissolved in DMSO; final concentration was 0.7% in DMSO). The plate was covered with an optically clear film and set to microplate reader (Infinite M200, Tecan).

A short description of a further series: in vitro. The note with it: human, Caco-2, pH 7.4. As for the experimental part: Cells were cultivated for 14-18 days in a cell culture incubator at 37° C., 5% CO2, 95% relative humidity. Cell culture medium was replaced every other day, beginning no later than 24 hours after initial plating.
10 mM stock solutions of test compounds were prepared in DMSO. The stock solutions of positive controls were prepared in DMSO at the concentration of 10 mM.
125 μL of 5 μM working solution of control compound and test compounds were added to the Transwell insert (apical compartment), and transfer 50 μL sample (DO sample) immediately from the apical compartment to a new 96-well plate. […] 285 μL of 5 μM working solution of control compound and test compounds were to the receiver plate wells (basolateral compartment), and transfer 50 μL sample (DO sample) immediately from the basolateral compartment to a new 96-well plate. Fill the wells in the Transwell insert (apical compartment) with 75 μL of HBSS (10 mM HEPES, pH 7.4). […] Samples were Vortexed for 5 minutes and then centrifuged at 3,220 g for 40 minutes. […] 100 μL of the Lucifer yellow solution was added to each Transwell insert (apical compartment), followed by filling the wells in the receiver plate (basolateral compartment) with 300 μL of HBSS (10 mM HEPES, pH 7.4). The plates were Incubated at 37° C. for 30 mins. 80 μL samples were removed directly from the apical and basolateral wells (using the basolateral access holes) and transferred to wells of new 96 wells plates. The Lucifer Yellow fluorescence (to monitor monolayer integrity) signal was measured in a fluorescence plate reader at 485 nm excitation and 530 nm emission.
The apparent permeability coefficient (Papp), in units of centimeter per second, can be calculated for Caco-2 drug transport assays using the following equation: […]

The nature of series [1]: Intrinsic clearance in liver microsomes (human). Format: in vitro ADME. The note with it: Human liver microsomes 0.5 mg/mL, 2 μM compound, 37° C. As for the experimental part: (§1) • 1. The master solution was prepared according to Table 5.
(§2) • 2. Three separated experiments were performed as follows. a) With NADPH: 10 μL of 20 mg/mL liver microsomes and 40 μL of 10 mM NADPH were added to the incubations. The final concentrations of microsomes and NADPH were 0.5 mg/mL and 1 mM, respectively. b) Without NADPH: 10 μL of 20 mg/mL liver microsomes and 40 μL of ultra-pure H2O were added to the incubations. The final concentration of microsomes was 0.5 mg/mL. c) Heat-inactivated microsomes without NADPH: 10 μL of 20 mg/mL heat-inactivated liver microsomes and 40 μL of ultra-pure H2O were added to the incubations. The final concentration of microsomes was 0.5 mg/mL. • 3. The reaction was started with the addition of 4 μL of 200 μM test compound solution or control compound solution at the final concentration of 2 μM and carried out at 37° C. • 4. Aliquots of 50 μL were taken from the reaction solution at 0, 15, 30, 45 and 60 min. […] Samples were centrifuged at 3, 220 g for 40 minutes. […] Data Analysis
(§3) Peak areas were determined from extracted ion chromatograms. The slope value, k, was determined by linear regression of the natural logarithm of the remaining percentage of the parent drug vs. incubation time curve.
(§4) The in vitro half-life (in vitro t1/2) was determined from the slope value:
(§5) Conversion of the in vitro t1/2 (min) into the in vitro intrinsic clearance (in vitro CLint, in μL/min/mg protein) was done using the following equation (mean of duplicate determinations): […]

A short description of series [2]: Intrinsic clearance in liver microsomes (mouse). In kind it is in vitro ADME. The note with it: Mouse liver microsomes 0.5 mg/mL, 2 μM compound, 37° C. The procedure:
as §1, §2, §3, §4, §5
In general terms: Liver microsomes are vesicles of endoplasmic reticulum, rich in cytochrome P450 enzymes.

The mark [3] stands for this setting: read-out: in vitro CLint (μL/min/mg protein).

The structures appear in SMILES notation.

Chain of wild type CK1δ (P48730 whole entry): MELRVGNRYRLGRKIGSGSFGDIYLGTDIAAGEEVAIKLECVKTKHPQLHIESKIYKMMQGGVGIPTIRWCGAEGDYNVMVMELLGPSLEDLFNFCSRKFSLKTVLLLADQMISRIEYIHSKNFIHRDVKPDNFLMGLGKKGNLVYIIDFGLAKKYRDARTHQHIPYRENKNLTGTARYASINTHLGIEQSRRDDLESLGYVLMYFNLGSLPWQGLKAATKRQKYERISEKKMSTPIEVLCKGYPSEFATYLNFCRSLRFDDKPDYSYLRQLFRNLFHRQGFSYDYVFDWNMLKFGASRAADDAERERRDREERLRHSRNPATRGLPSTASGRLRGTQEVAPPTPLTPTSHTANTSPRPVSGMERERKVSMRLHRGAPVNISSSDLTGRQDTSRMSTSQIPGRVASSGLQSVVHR
T1 sequence (P48730 whole entry): as above

By IC50 is commonly meant the concentration that gives 50% inhibition. Lower therefore signals greater potency in that assay. The term EC50 denotes the concentration giving half of the maximal effect. For `Cc1cc(-c2c(-c3ccc(F)cc3)nn3c2CN(C(=O)CCN(C)C)CC3)ccn1` [Compound I-6, 3-(dimethylamino)-1-(2-(4-fluorophenyl)-3-(2-methylpyridin-4-yl)-6,7-dihydropyrazolo[1,5-a]pyrazin-5(4H)-yl)propan-1-one], on wild type CK1δ, the half-inhibitory concentration (IC50) is 1030 nM. A half-maximal response at CK1δ (EC50) required 7400 nM.

Compound `Cc1cc(-c2c(-c3ccc(F)cc3)nn3c2CN(C(=O)C(F)(F)F)CC3)ccn1` [Compound I-16, 2,2,2-trifluoro-1-(2-(4-fluorophenyl)-3-(2-methylpyridin-4-yl)-6,7-dihydropyrazolo [1,5-a]pyrazin-5(4H)-yl)ethan-1-one] gave an IC50 against wild type CK1δ of 1700 nM. Further, the EC50 at CK1δ came out at 5200 nM.

On wild type CK1δ, `Nc1cc(-c2nn3c(c2-c2ccc(F)cc2)C(=O)NCC3)ccn1` [Compound I-64, 2-(2-aminopyridin-4-yl)-3-(4-fluorophenyl)-6,7-dihydropyrazolo[1,5-a]pyrazin-4(5H)-one] came in with an IC50 of 334 nM. Besides, the 50% effective concentration (EC50) at CK1δ worked out at 700 nM.

Turning to `COc1ccc(/C=C/C(=O)Nc2cc(-c3c(-c4ccc(F)cc4)nn4c3CN(C(C)=O)CC4)ccn2)c(OC)c1` [Compound I-69, (E)-N-(4-(5-acetyl-2-(4-fluorophonyl)-4,5,6,7-tetrahydropyrazolo[1,5-a]pyrazin-3-yl)pyridin-2-yl)-3-(2,4-dimethoxyphenyl) acrylamide], at wild type CK1δ, the concentration for half-maximal inhibition (IC50) worked out at 37.4 nM. The concentration for a half-maximal effect (EC50) at CK1δ was 300 nM.

`CS(=O)(=O)N1CCn2nc(-c3ccc(F)cc3)c(-c3ccnc(N)n3)c2C1` [Compound I-21, 4-(2-(4-fluorophenyl)-5-(methylsulfonyl)-4,5,6,7-tetrahydropyrazolo[1,5-a]pyrazin-3-yl)pyrimidin-2-amine.] registered an IC50 at wild type CK1δ of 364 nM. On CK1δ, this compound came in with a half-maximal effective concentration (EC50) of 400 nM.

The Papp A→B is how fast a substance crosses the layer from the apical side. By Papp B→A is commonly meant the apparent permeability from the basolateral to the apical side of a cell layer. Usually efflux ratio stands for a quotient of directional permeabilities that is used to spot active efflux. Compound `CC(=O)Nc1cc(-c2c(-c3ccc(F)cc3)nn3c2CN(CCN(C)C)CC3)ccn1` [Compound I-50, N-(4-(5-(2-(dimethylamino)ethyl)-2-(4-fluorophenyl)-4,5,6,7-tetrahydropyrazolo [1,5-a]pyrazin-3-yl)pyridin-2-yl)acetamide] showed a 50% effective concentration (EC50) on CK1δ of 200 nM. In the series “in vitro”, this compound had a Papp A→B at 2 h, 5 μM of 0.88 ×10⁻⁶ cm/s. This compound displayed a Papp B→A at 2 h, 5 μM in the series “in vitro” of 22.4 ×10⁻⁶ cm/s. Further, the efflux ratio at 2 h, 5 μM in the series “in vitro” is 25.4. The microsomal CLint at 2 μM in series [1] (setting [3]) was 13.5 µL/min/mg; in series [2] (setting [3]), 35.1 µL/min/mg. Also, the results for the half-life at 2 μM in series [1] (read-out: in vitro t1/2) and in series [2] (read-out: in vitro t1/2) were 1.71 h and 0.658 h, respectively.

The record behind these values is US20250276972A1, “COMPOUNDS AS CASEIN KINASE INHIBITORS” (GRITSCIENCE BIOPHARMACEUTICALS CO.,LTD., priority 2020, published 2025).
